Experiment [1] has as its system hTel22 (DNA, G4) AGGGTTAGGGTTAGGGTTAGGG
Put plainly: UV-vis absorption titration. Conditions: 10 mM Tris-HCl pH 7.4, 5 µM c-exNDI, apparent.

Experiment [2] concerns c-myc (DNA, G4) TGAGGGTGGGTAGGGTGGGTAA
Briefly: UV-vis absorption titration. The conditions noted are these: K+ 100 mM; 10 mM Tris-HCl pH 7.4; 5 µM c-exNDI; apparent; main text prints error ± 0.3.

Experiment [3] concerns dsDNA (DNA, duplex) CAATCGGATCGAATTCGATCCGATTG
Put plainly: UV-vis absorption titration. Conditions: K+ 100 mM; 10 mM Tris-HCl pH 7.4; 5 µM c-exNDI; apparent.

In experiment [4] the test system is TBA (DNA, G4) GGTTGGTGTGGTTGG
Briefly: UV-vis absorption titration. Conditions: K+ 100 mM; 10 mM Tris-HCl pH 7.4; 5 µM c-exNDI; apparent.

Experiment [5] has as its system ssDNA (DNA, single strand) GGATGTGAGTGTGAGTGTGAGG
Briefly: UV-vis absorption titration. Conditions: K+ 100 mM; 10 mM Tris-HCl pH 7.4; 5 µM c-exNDI; apparent.

Experiment [6] has as its system hTel22 (DNA, G4) AGGGTTAGGGTTAGGGTTAGGG
Put plainly: fluorescence titration. The conditions noted are these: K+ 100 mM; 10 mM Tris-HCl pH 7.4; 5 µM c-exNDI; apparent.

For experiment [7], the system named is c-kit1 (DNA, G4) AGGGAGGGCGCTGGGAGGAGGG
Put plainly: UV-vis absorption titration. The conditions noted are these: K+ 100 mM; 10 mM Tris-HCl pH 7.4; 5 µM c-exNDI; apparent.

The test system of experiment [8] is c-kit2 (DNA, G4) CCCGGGCGGGCGCGAGGGAGGGGAGG
Put plainly: fluorescence light-up. The conditions noted are these: K+ 100 mM; 10 mM Tris-HCl pH 7.4; 5 µM each; quantum yield 0.13 against 0.08 free.

The subject of experiment [9] is hTel22 (DNA, G4) AGGGTTAGGGTTAGGGTTAGGG
Put plainly: circular dichroism (induced CD). Conditions: K+ 100 mM; 4 µM G4, 16 µM c-exNDI.

In experiment [10] the test system is HRAS (DNA, G4) TCGGGTTGCGGGCGCAGGGCACGGGCG
Briefly: UV-vis absorption titration. Conditions: K+ 100 mM; 10 mM Tris-HCl pH 7.4; 5 µM c-exNDI; apparent; overall constant of 2:1 model.

Molecules are shown by their SMILES.

Experimental findings from PMC5471928 (2017) are described below.

`CN(C)CCCn1c(=O)c2ccc3c(=O)n(CCCN(C)C)c(=O)c4c5[nH]c6ccccc6[nH]c5c(c1=O)c2c34`: the “K1:1” value in experiment [1] (K+ 100 mM) is listed as 5.37±0.06x10^6 M^-1; in experiment [2], 3.43±0.03x10^7 M^-1; in [3] it was 7.41±0.03x10^3 M^-1; in [4], 1.2±0.5x10^5 M^-1; in experiment [5], 2.85±0.01x10^5 M^-1; in [6] it was 5.34±0.03x10^6 M^-1. Moreover, the “K1:1” value in [7] was 4.82±0.04x10^6 M^-1. Moreover, the “K1:2” value is 3.0±0.3x10^11 M^-2 in experiment [1] (Na+ 100 mM, overall constant of 2:1 model) and 3.0±0.3x10^10 M^-2 in experiment [10]. The binding entry in [8] and in [9] was “yes” each time.
